Results taken from patent publication US20250041434A1, “CEA ASSAY FOR PATIENT SELECTION IN CANCER THERAPY” (SANOFI, priority 2021, published 2025).

Experiments:
[1] = tested on: cancer cells; assay: cytotoxic activity of ADC metabolites; format: cell-based; settings: through binding to tubulin and inhibition of microtubule polymerization
[2] = biological target: T1, A3B3 domain of human CEACAM5 (Homo sapiens, UniProt P06731); assay: domain specificity of binding
T1 sequence (P06731 499-685 limits assumed): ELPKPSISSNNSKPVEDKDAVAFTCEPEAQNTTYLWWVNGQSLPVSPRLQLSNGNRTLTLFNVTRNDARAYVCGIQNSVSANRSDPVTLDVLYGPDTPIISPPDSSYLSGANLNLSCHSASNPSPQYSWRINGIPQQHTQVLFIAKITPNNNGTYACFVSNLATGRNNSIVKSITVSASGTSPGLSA

[3] = biological target: T2, CEACAM1 (Homo sapiens, UniProt P13688); assay: recognition of other CEACAMs; format: binding
T2 sequence (P13688 35-526): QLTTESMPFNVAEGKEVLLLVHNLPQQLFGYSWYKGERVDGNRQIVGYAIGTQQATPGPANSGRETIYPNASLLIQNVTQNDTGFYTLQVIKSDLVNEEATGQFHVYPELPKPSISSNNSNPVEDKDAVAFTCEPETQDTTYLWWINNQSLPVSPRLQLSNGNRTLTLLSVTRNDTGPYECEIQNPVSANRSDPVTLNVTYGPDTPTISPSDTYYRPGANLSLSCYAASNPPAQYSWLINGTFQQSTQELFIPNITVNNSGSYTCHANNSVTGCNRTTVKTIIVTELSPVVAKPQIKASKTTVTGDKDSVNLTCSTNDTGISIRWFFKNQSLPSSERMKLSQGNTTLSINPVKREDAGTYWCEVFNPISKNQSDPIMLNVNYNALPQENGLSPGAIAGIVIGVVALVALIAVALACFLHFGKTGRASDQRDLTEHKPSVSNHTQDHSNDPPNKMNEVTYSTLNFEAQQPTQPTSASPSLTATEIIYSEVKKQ

[4] = biological target: T3, CEACAM6 (Homo sapiens, UniProt P40199); assay: recognition of other CEACAMs; format: binding
T3 sequence (P40199 35-320): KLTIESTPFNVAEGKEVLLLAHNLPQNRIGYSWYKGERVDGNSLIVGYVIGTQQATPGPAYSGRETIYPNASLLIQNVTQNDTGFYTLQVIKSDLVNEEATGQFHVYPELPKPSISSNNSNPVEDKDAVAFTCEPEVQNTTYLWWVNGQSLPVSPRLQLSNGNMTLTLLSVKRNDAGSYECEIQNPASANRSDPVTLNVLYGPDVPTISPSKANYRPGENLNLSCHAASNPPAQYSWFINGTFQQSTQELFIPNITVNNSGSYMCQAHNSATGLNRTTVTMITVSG

[5] = biological target: T4, CEACAM7 (Homo sapiens, UniProt Q14002); assay: recognition of other CEACAMs; format: binding
T4 sequence (Q14002 36-242): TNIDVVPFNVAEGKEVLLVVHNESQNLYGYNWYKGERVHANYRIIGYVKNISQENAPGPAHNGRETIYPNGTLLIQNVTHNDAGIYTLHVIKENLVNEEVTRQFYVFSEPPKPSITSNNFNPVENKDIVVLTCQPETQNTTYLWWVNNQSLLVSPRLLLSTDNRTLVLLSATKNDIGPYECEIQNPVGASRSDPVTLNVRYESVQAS

[6] = biological target: T5, CEACAM8 (Homo sapiens, UniProt P31997); assay: recognition of other CEACAMs; format: binding
T5 sequence (P31997 35-320): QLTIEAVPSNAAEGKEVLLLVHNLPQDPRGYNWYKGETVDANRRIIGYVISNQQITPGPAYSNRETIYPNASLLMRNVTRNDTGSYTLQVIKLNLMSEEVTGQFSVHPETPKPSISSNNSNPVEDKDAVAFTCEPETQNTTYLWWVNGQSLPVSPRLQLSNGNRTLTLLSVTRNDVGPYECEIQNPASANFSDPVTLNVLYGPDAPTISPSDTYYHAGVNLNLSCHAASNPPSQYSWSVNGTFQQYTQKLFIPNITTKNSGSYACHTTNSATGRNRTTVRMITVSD

[7] = preliminary experiments on effector activity
[8] = tested on: NSQ NSCLC with high CEACAM5 expression; assay: TED13751 clinical study, tumor response (RECIST 1.1) in NSQ NSCLC high CEACAM5 expressers; format: in vivo, human; settings: for anti-tumor activity, in words: participants heavily pre-treated for NSQ NSCLC, study TED13751
Description: In this cohort of NSQ NSCLC participants with high CEACAM5 expression on tumor (≥2+ in intensity in ≥50%) expansion cohort NSQ NSCLC, 10 out of 13 responding participants had high baseline circulating CEA (≥100 ng/mL).
Expression of CEACAM5 on tumor was assessed using CEACAM5 IHC test and circulating CEA and CEACAM5 assays for patients enrolled in clinical trial TED13751 (NCT02187848).
Circulating CEA was determined locally using the assay which was of routine use in the institution. In vitro diagnostic CEA assays measure CEA not claiming specificity for CEACAM5.
The study will be divided in […] parts: The Escalation Phase and the Expansion Phase.
The expansion phase will be conducted with every 2 weekly dosing schedule. During the Expansion Phase, the population to be treated will be restricted to patients with advanced diseases in colorectal cancer (CRC), NSQ NSCLC, small cell lung cancer (SCLC), and gastric adenocarcinoma (including signet-ring cell carcinoma subtype as well as esophago-gastric junction (EGJ) adenocarcinomas of the Siewert Types II and III). CEACAM5 expression of ≥2+ in intensity involving ≥50% of the tumor cell population will be documented during pre-screening on the most recent archival tissue sample and using local IHC evaluation for patients potentially eligible for study treatment in the gastric adenocarcinoma cohort. There are 2 independent NSQ NSCLC expansion phase cohorts: The first one (Lung cohort) includes patients with high CEACAM5 expression (≥2+ in intensity involving at least 50% of the tumor cell population). The second cohort (Lung bis cohort) will include patients that pre-screened positive at moderate intensity (≥2+ between ≥1% to <50% of the tumor cell population). The SCLC cohort includes patients with CEACAM5 expression of ≥2+ in intensity involving ≥1% of the tumor cell population. […] Full screening will only be done for archival cases meeting the above definition. No CEACAM5 pre-screening is required for CRC patients potentially eligible for the CRC expansion cohort. The level of CEACAM5 expression will be documented essentially retrospectively and centrally on both archival and fresh (baseline sample) tumor tissues. Confirmation of CEACAM5 tumor expression will be done retrospectively in a central laboratory on fresh tumor tissue collected at baseline (mandatory biopsy in the Expansion Phase only, on all patients with CRC and gastric cancer, and on NSQ NSCLC as well as SCLC patients with a lesion amenable to biopsy). If sufficient archived tumor material is available, a central evaluation will also be done retrospectively to gain knowledge on the variability in evaluation of the expression. The results of the retrospective analyses will have no impact on patients' treatment. It will be used for the better interpretation of the overall response, and as the baseline for comparison with CEACAM5 expression upon progression (exploration for loss of CEACAM5 as mechanism of acquired resistance).
In the Expansion cohorts, the assessment of response to tusamitamab ravtansine is a primary objective. All patients treated in the Expansion Phase must have at least one measurable lesion for inclusion. Tumor assessment will be made at least every 4 cycles. Decision to pursue treatment will be based on the response evaluation made by the Investigator, however, measures of lesions will be collected in the electronic case report forms for a determination of response by Sponsor. A partial or complete response must be confirmed on a second examination done at least 4 weeks apart, in order to be documented as a confirmed response to therapy.
The RECIST v1.1 criteria will be followed for assessment of tumor response.

[9] = TED13751 Main dose escalation, maximum tolerated dose; format: in vivo, human; settings: q2w, IV infusion
Excerpt: The dose escalation decision will be based on the dose limiting toxicities (DLTs) observed during Cycle 1+Cycle 2 in q2w cycle and during Cycle 1 in q3w cycle, whether related or not to the investigational medicinal product (IMP) in the absence of clear evidence to the contrary after validation by the Study Committee, and if not related to the progression of disease. Before escalating the tusamitamab ravtansine dose to the next level, the safety data, and especially DLTs, ocular and cardiac adverse events (AEs) will be reviewed by the Study Committee. Cumulative toxicities observed on subsequent administrations will also be considered for the dose escalation process and the dose selection decision. […]
For the accelerated dose escalation phase, as well as for the Bayesian EWOC, a minimum of […] duration (˜4 weeks) will be mandatory between the last patient who has received Day 1 of Cycle 1 at DL n, and the first patient who will receive Day 1 of Cycle 1 at DL n+1. The dose determined to be the maximum tolerated dose (MTD) will be tested further in the Expansion cohorts.
The first loading dose tested will be 120 mg/m^2; if this first dose is safe, then dose escalation will proceed to test next 135 mg/m^2, and 150 mg/m^2. […] The determined MTD or safe MAD will be used for CRC-L cohort.

[10] = Phase 1/2 study adverse drug reactions; format: in vivo, human; settings: heavily pre-treated high CEACAM5 expressers for NSCLC
Description: The ADC was analyzed in a Phase 1/2 study in heavily pre-treated high CEACAM5 expressers for NSCLC.

[11] = tested on: relevant experimental model; assay: single administration in relevant experimental model; format: in vivo
[12] = tested on: patient-derived CRC xenograft expressing CEACAM5; assay: circulating CEA in mice engrafted orthotopically with patient-derived CRC xenograft; format: in vivo; settings: single active dose; rise in circulating CEA occurring with tumor growth
Excerpt: However, specificities linked to the CEACAM5 target would potentially allow a more accurate follow-up of treatment impact on tumor growth by the monitoring CEA levels in the blood. Indeed, measurement of circulating CEA levels is of some use for CRC treatment monitoring. […] Similarly, modulation of circulating CEA may be a useful PDy marker of response to tusamitamab ravtansine. […] The usefulness of monitoring circulating CEA will be explored in this clinical study.

[13] = tested on: cells expressing CEACAM5; settings: see WO 2014/079886; cited from earlier work
[14] = tested on: tumor cells; settings: see WO 2014/079886; cited from earlier work
[15] = tested on: human primary colon and stomach tumors; settings: mice bearing human primary colon and stomach tumors; see WO 2014/079886; cited from earlier work
[16] = Phase 1/2 study, heavily pre-treated high CEACAM5 expressers for NSCLC

In the case of `COc1cc2cc(c1Cl)N(C)C(=O)CC(OC(=O)C(C)N(C)C(=O)CCC(C)(C)S)C1(C)OC1C(C)C1CC(O)(NC(=O)O1)C(OC)/C=C/C=C(\C)C2` (stereo not shown) [DM4, N2′-deacetyl-N-2′(4-methyl-4-mercapto-1-oxopentyl)-maytansine], the cytotoxic activity [1] is reported as “potent cytotoxic activity”.

For `COc1cc2cc(c1Cl)N(C)C(=O)CC(OC(=O)C(C)N(C)C(=O)CCC(C)(C)SC)C1(C)OC1C(C)C1CC(O)(NC(=O)O1)C(OC)C=CC=C(C)C2` (stereo not shown) [Me-DM4], the cytotoxic activity [1] was “potent cytotoxic activity”.

With “Tusamitamab ravtansine: immunoconjugate ADC combining humanized anti-CEACAM5 antibody tusamitamab and maytansinoid DM4 via SPDB linker; CAS Registry No. 2254086-60-5” the “binding to A3B3 domain of human CEACAM5” value [2] was “specifically binds”, the “recognition of CEACAM1” value [3] was “does not recognize” and the “recognition of CEACAM6” value [4] was “does not recognize”. For the same molecule, the “recognition of CEACAM7” value [5] was “does not recognize”, the “recognition of CEACAM8” value [6] was “does not recognize” and the effector activity [7] was “devoid of effector activity”. The “participants who had PR” value ([8]; 100 mg/m^2 Q2W, 64 participants, RECIST 1.1) was 13, the overall response rate ([8]; 100 mg/m^2 Q2W, 64 participants, RECIST 1.1, 95% CI: 12.27% to 31.71%) was 20.3% and the “Duration of Response (DoR), in words” value [8, 16] was “competitive”. For the same molecule, the “Overall Response Rate (ORR), in words” value [8, 16] was “competitive”, the “Responses (%)” value ([8]; baseline circulating CEA <5 μg/L (9 patients), 100 mg/m^2 Q2W) was 22.2% and the “Responses (%)” value ([8]; baseline circulating CEA <100 μg/L (37 patients), 100 mg/m^2 Q2W) was 8.1%. For the same molecule, the “Responses (%)” value ([8]; baseline circulating CEA >3 μg/L (58 patients), 100 mg/m^2 Q2W) was 22.4%, the “Responses (%)” value ([8]; baseline circulating CEA ≥5 μg/L (53 patients), 100 mg/m^2 Q2W) was 20.8% and the “Responses (%)” value ([8]; baseline circulating CEA ≥100 μg/L (25 patients), 100 mg/m^2 Q2W) was 40.0%. For the same molecule, the “share of the 13 responders with baseline circulating CEA level ≥100 μg/L” value ([8]; high expressers cohort, 100 mg/m^2 Q2W) was 77%, the “anti-tumor activity, in words” value [8] was “encouraging anti-tumor activity” and the “anti-tumor activity, in words” value ([8]; listed as tusamitamab ravtansine) was “Encouraging preliminary anti-tumor activity”. For the same molecule, the “maximum tolerated dose (MTD)” value [9] was 100 mg/m^2, the hematological/nerve toxicity [10] was “minimal” and the “most common Adverse Drug Reactions (ADRs)” value ([10]; reversible without treatment discontinuation) was “ocular toxicity”. For the same molecule, the tumor regressions [11] was “induces regressions”, the “circulating CEA” value [12] was “prevented a rise in circulating CEA” and the “internalization into cells expressing CEACAM5 after binding” value [13] was “capable of being internalized”. For the same molecule, the “cytotoxic activity on tumor cells in vitro” value [14] was “induce cytotoxic activity” and the “tumor growth inhibition in vivo” value [15] was “markedly inhibit tumor growth”.
